Reference: patent US20230012570A1, “BICYCLIC COMPOUND USED AS SELECTIVE ANDROGEN RECEPTOR MODULATOR” (MEDSHINE DISCOVERY INC., priority 2019, published 2023)
Where two headings read alike, the source gives them in different places.

Assays:
[1] = target: T1, CYP2C9 (Homo sapiens, UniProt P11712); test: Human liver microsomal CYP inhibition experiment, CYP2C9; format: in vitro ADME
T1 construct: Mixed human liver microsomes (HLM) were purchased from Corning Inc; tissue Corning Inc. or XenoTech, LLC. or other suppliers; host or cells: pooled human liver microsomes
T1 sequence (P11712 whole entry): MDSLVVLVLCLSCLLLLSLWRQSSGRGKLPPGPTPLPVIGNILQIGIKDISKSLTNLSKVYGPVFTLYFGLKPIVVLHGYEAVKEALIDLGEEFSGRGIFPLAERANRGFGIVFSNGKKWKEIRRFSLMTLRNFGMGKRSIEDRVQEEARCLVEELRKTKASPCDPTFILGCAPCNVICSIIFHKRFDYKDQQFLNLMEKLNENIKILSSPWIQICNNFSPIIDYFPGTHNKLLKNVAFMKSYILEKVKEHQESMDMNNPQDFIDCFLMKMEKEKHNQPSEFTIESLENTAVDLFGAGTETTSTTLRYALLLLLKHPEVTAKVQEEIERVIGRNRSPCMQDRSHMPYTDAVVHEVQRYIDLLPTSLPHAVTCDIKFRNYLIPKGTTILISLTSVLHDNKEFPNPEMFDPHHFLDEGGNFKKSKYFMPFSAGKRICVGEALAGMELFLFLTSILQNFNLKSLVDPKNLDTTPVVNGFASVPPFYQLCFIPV
Method: Experiment Embodiment 4: Human Liver Microsomal CYP Inhibition Experiment
The inhibitory effects of the test compound 3A and VK5211 on the activities of human liver microsomal cytochrome P450 isozymes (CYP1A2, CYP2C9, CYP2C19, CYP2D6 and CYP3A4) were determined.
Mixed human liver microsomes (HLM) were purchased from Corning Inc. (Steuben, New York, USA) or XenoTech, LLC. (Lenexa, Kans., USA) or other suppliers, and were stored at a temperature below −60° C. before use.
First, the test compound (10.0 mM) was gradient diluted to prepare working solution (100×final concentration), and the concentrations of the working solution were: 5.00, 1.50, 0.500, 0.150, 0.0500, 0.0150, 0.00500 mM, and a working solution of each positive inhibitor of P450 isozymes (CYP1A2, CYP2C9, CYP2C19, CYP2D6, and CYP3A4) and a specific substrate mixture thereof (5 in 1) were prepared at the same time; human liver microsomes stored in a refrigerator at a temperature lower than −60° C. were put on ice to thaw, and when all the human liver microsomes were dissolved, the microsomes were diluted with potassium phosphate buffer (PB) to prepare a working solution of a certain concentration (0.253 mg/mL). […] The concentration of metabolites produced by the probe substrate in the sample was determined by liquid chromatography-tandem mass spectrometry (LC-MS/MS) method. […]

[2] = Pharmacokinetic test in male SD rats, intravenous and intragastric administration, plasma LC-MS/MS; format: in vivo; settings: rat; for AUC(0-t): read-out: Curve area (0-t) AUC0-last; for half-life: read-out: Half-life T1/2 (converted)
From the text: Experimental Embodiment 2: Pharmacokinetic Test of the Compounds of the Present Disclosure
Male SD rats were used as test animals, and LC-MS/MS method was used to determine the drug concentrations in plasma of rats at different time after intravenous and intragastric administration of compound 1A, compound 3A and compound 8A. To study the pharmacokinetic behavior of the compounds in rats and to evaluate their pharmacokinetic characteristics.
2.1 Test Drugs: Compound 1A, Compound 3A and Compound 8A
2.2 Test animals: 12 healthy adult male SD rats, divided into 6 groups with 2 rats in each group. The animal was purchased from Shanghai Sippr-BK laboratory animal Co. Ltd., and the animal production license number was SOCK (Shanghai) 2013-0016.
An appropriate amount of sample was weighed, and appropriate amounts of DMSO, polyethylene glycol-15 hydroxystearate and water were added in turn according to the volume ratio of 10:10:80, and the clarified state of 0.2 mg/mL was reached after stirring and sonication for intravenous administration.
An appropriate amount of sample was weighed and dissolved in 5% Tween 80+90% polyethylene glycol 400+5% polyvinylpyrrolidone K30 solution, and the clarified state of 0.5 mg/mL was reached after stirring and sonication for intragastric administration.
12 male SD rats were divided into 6 groups, and after fasting overnight, groups 1-3 were administered intravenously with a volume of 5 mL/kg; groups 4-6 were administered by gavage with a volume of 10 mL/kg.
After compound 1A, compound 3A and compound 8A were intravenously administered to SD rats, 40 μL of blood was collected at 0.0833, 0.25, 0.5, 1, 2, 4, 8 and 24 hours, respectively, and placed in a test tube containing 2 μL of EDTA-K2. After compound 1A and compound 3A were administered by gavage, 40 μL of blood was collected at 0.25, 0.5, 1, 2, 4, 8 and 24 hours, respectively, and placed in a test tube containing 2 μL of EDTA-K2. The tubes were centrifuged at 4000 rpm for 15 minutes to separate the plasma and stored at −60° C. Animals were allowed to eat 2 hours after administration.
The content of the test compounds in the plasma of rats after intravenous and intragastric administration was determined by LC-MS/MS method. The linear range of the method was 2.00-6000 nmol/L; plasma samples were analyzed after acetonitrile precipitation protein treatment.

[3] = intravenous administration, dose 1.1 (1A), 0.69 (3A), 0.716 (8A) mg/kg
[4] = po, intragastric administration, dose 4.92 (1A), 4.2 (3A), 4.59 (8A) mg/kg

## N#Cc1ccc(N2CC3CC3C2C(O)C(F)(F)F)cc1Cl (single isomer, unassigned) [Compound 3A]
[1]
  IC50: > 50 µM
[2]; intravenous administration, dose 1.1 (1A), 0.69 (3A), 0.716 (8A) mg/kg, read-out: Apparent volume of distribution Vdss
  Vd: 1.83 L/kg
[2]; intravenous administration, dose 1.1 (1A), 0.69 (3A), 0.716 (8A) mg/kg, read-out: Clearance rate Cl
  clearance: 28.6 mL/min/kg
[2]; intravenous administration, dose 1.1 (1A), 0.69 (3A), 0.716 (8A) mg/kg, read-out: Curve area (0-inf) AUC0-inf
  AUC(0-inf): 1.29 µM·h
[2]; [3]
  AUC(0-t): 1.28 µM·h
  half-life: 1.35 h
[2]; oral, intragastric vs intravenous administration, read-out: Bioavailability F
  bioavailability: 16%
[2]; po, intragastric administration, dose 4.92 (1A), 4.2 (3A), 4.59 (8A) mg/kg, read-out: Blood drug concentration Cmax
  Cmax: 262 nM
[2]; [4]
  AUC(0-t): 1.25 µM·h
  half-life: 1.8 h
[2]; po, intragastric administration, dose 4.92 (1A), 4.2 (3A), 4.59 (8A) mg/kg, read-out: Peak time Tmax
  Tmax: 3 h
